Source: patent US10961215B2, “N-aryl and N-heteroaryl piperidine derivatives as liver X receptor beta agonists, compositions, and their use” (Merck Sharp & Dohme Corp., priority 2016, dated 2021)

Tests used:
[1] = target: T1, GST tagged LXRbeta LBD (ligand binding domain) (Homo sapiens, UniProt P55055); experiment: LanthaScreen TR-FRET Liver X Receptor Coactivator Assay, LXR beta-LBD (co-activator recruitment; IP and % Emax relative to T0901317); type: biochemical; settings: for EC50: Inflection Point of co-activator recruitment, LXR beta-LBD, TR-FRET; for Emax: efficacy at max dose in relation to reference T0901317, LXR beta-LBD, read-out: LXR beta actiivty at max dose (%)
T1 construct: purchased Invitrogen pv4658.pps
T1 sequence (P55055 222-460 limits assumed): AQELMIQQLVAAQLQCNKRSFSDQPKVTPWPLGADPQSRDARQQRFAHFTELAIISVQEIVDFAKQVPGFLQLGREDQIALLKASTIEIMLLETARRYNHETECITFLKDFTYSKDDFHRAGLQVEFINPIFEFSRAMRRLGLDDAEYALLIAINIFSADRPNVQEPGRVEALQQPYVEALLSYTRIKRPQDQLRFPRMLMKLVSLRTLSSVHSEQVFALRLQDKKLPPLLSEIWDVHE
Experimental: (§1) Potency (Inflection Point, IP) and efficacy (Emax) are evaluated via compound-induced co-activator recruitment to glutathione-S-transferase (GST) tagged LXRbeta and LXRalpha LBD (ligand binding domain) proteins in relation to reference dual agonist compound T0901317 (N-(2,2,2-Trifluoroethyl)-N-[4-[2,2,2-trifluoro-1-hydroxy-1-(trifluoromethyl)ethyl]phenyl]benzenesulfonamide) using the LanthaScreen™ TR-FRET Liver X Receptor Coactivator Assays according to manufacturer's instructions (Invitrogen catalog number pv4658.pps and pv4655). While running the LanthaScreen™ TR-FRET Liver X Receptor Coactivator Assay, LXR alpha-LBD or LXR beta-LBD was added to ligand test compounds followed by addition of a mixture of a fluorescein-labelled coactivator peptide and terbium-conjugated anti-GST antibody. After an incubation period at room temperature, TR-FRET (time-resolved fluorescence resonance energy transfer) was measured using a filter-based instrument capable of TR-FRET, e.g. PerkinElmer Envision.

[2] = target: T2, GST tagged LXRalpha LBD (ligand binding domain) (Homo sapiens, UniProt Q13133); experiment: LanthaScreen TR-FRET Liver X Receptor Coactivator Assay, LXR alpha-LBD (co-activator recruitment; IP and % Emax relative to T0901317); type: biochemical; settings: for LXR alpha IP (nM) / EC50: Inflection Point of co-activator recruitment, LXR alpha-LBD, TR-FRET; for Emax: efficacy at max dose in relation to reference T0901317, LXR alpha-LBD, read-out: LXR alpha actiivty at max dose (%)
T2 construct: purchased Invitrogen pv4655
T2 sequence (Q13133 209-447 limits assumed): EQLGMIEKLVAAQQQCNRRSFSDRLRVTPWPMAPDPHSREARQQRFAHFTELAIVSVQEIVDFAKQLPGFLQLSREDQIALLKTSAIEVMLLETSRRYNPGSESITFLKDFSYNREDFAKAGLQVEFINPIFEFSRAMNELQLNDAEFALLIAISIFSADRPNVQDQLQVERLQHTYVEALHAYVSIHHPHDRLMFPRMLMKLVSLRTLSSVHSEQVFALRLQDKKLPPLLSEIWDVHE
Experimental: as §1

| SMILES | EC50 [1] [nM] | Emax [1] [%] | LXR alpha IP (nM) [2] | Emax [2] [%] | EC50 [2] [nM] | activity (stated in words in the synthesis text) ([1]; cis/trans isomers of Example 11-1 separated by Prep-HPLC (RT=1.95 min, 1.98 min), assay not given) |
| --- | --- | --- | --- | --- | --- | --- |
| CN(C)C(=O)c1ccc(N2CCC(CCCN(C)C(=O)[C@](O)(c3cccc(C4CC4)c3)C(F)(F)F)CC2)cc1Cl [Example 4-3, (R)-2-chloro-4-(4-(3-(2-(3-cyclopropylphenyl)-3,3,3-trifluoro-2-hydroxy-N-methylpropanamido)propyl)piperidin-1-yl)-N,N-dimethylbenzamide] | 67 | 53 | No IP | 0 |  |  |
| CN(C)C(=O)c1ccc(N2CCC([C@H]3C[C@@H](N(C)C(=O)[C@](O)(c4cccc(OC5CC5)c4)C(F)(F)F)C3)CC2)nc1Cl [Example 17-5, Cis-2-chloro-6-(4-(-3-((R)-2-(3-cyclopropoxyphenyl)-3,3,3-trifluoro-2-hydroxy-N-methylpropanamido)cyclobutyl)piperidin-1-yl)-N,N-dimethylnicotinamide] | 148 | 20 | No IP | 0 |  |  |
| CC(C)N(C)C(=O)c1ccc(N2CCC(CCCN(C)C(=O)[C@](O)(c3ccccc3)C(F)(F)F)CC2)cc1Cl [Example 4-10, (R)-2-chloro-N-isopropyl-N-methyl-4-(4-(3-(3,3,3-trifluoro-2-hydroxy-N-methyl-2-phenylpropanamido)propyl)piperidin-1-yl)benzamide] | 162 | 67 | No IP | 10 |  |  |
| CN(C)C(=O)c1ccc(N2CCC([C@H]3C[C@H]3CN(C)C(=O)[C@](O)(c3cccc(C(F)(F)F)c3)C(F)(F)F)CC2)nc1Cl [Example 15-7, 2-chloro-N,N-dimethyl-6-(4-((1R,2R)-2-(((R)-3,3,3-trifluoro-2-hydroxy-N-methyl-2-(3-(trifluoromethyl)phenyl)rpropanamido)methyl)cyclopropyl)piperidin-1-yl)nicotinamide] | 26 | 53 | No IP | 11 |  |  |
| CCOc1cccc([C@@](O)(C(=O)N(C)CCCC2CCN(c3ccc(C(=O)N(C)C)c(Cl)n3)CC2)C(F)(F)F)c1 [Example 1-36, (R)-2-chloro-6-(4-(3-(2-(3-ethoxyphenyl)-3,3,3-trifluoro-2-hydroxy-N-methylpropanamido)propyl)piperidin-1-yl)-N,N-dimethylnicotinamide] | 78 | 63 | No IP | 0 |  |  |
| CN(C)C(=O)c1ccc(N2CCC(CCCN(C)C(=O)[C@@](O)(c3cccc(OC4CC4)c3)C(F)(F)F)CC2)nc1Cl [Example 1-35, (S)-2-chloro-6-(4-(3-(2-(3-cyclopropoxyphenyl)-3,3,3-trifluoro-2-hydroxy-N-methylpropanamido)propyl)piperidin-1-yl)-N,N-dimethylnicotinamide] | 437 | 46 | No IP | 14 |  |  |
| COc1cccc([C@@](O)(C(=O)N(C)CC[C@H]2CC23CCN(c2ccc(C(=O)N(C)C)c(Cl)c2)CC3)C(F)(F)F)c1 [Example 7-6, 2-chloro-N,N-dimethyl-4-((R)-1-(2-((R)-3,3,3-trifluoro-2-hydroxy-2-(3-methoxyphenyl)-N-methylpropanamido)ethyl)-6-azaspiro[2.5]octan-6-yl)benzamide] | 21 | 76 |  | 33 | 439 |  |
| COc1cccc([C@@](O)(C(=O)N(C)C2CC(CC3CCN(c4ccc(C(=O)N(C)C)c(C)n4)CC3)C2)C(F)(F)F)c1 (single isomer, unassigned) [first eluting peak] |  |  |  |  |  | not active |
| CN(C)C(=O)c1ccc(N2CCC(C[C@@H]3C[C@H]3CN(C)C(=O)[C@](O)(c3ccccc3)C(F)(F)F)CC2)nc1Cl [Example 18-4, 2-chloro-N,N-dimethyl-6-(4-(((1R,2R)-2-(((R)-3,3,3-trifluoro-2-hydroxy-N-methyl-2-phenylpropanamido)methyl)cyclopropyl)methyl)piperidin-1-yl)nicotinamide] | 66 | 57 | No IP | 15 |  |  |
| CN(C)C(=O)c1ccc(N2CCC([C@H]3C[C@H]3CN(C)C(=O)[C@](O)(c3cc(Cl)cc(Cl)c3)C(F)(F)F)CC2)nc1Cl [Example 15-6, 2-chloro-6-(4-((1R,2R)-2-(((R)-2-(3,5-dichlorophenyl)-3,3,3-trifluoro-2-hydroxy-N-methylpropanamido)methyl)cyclopropyl)piperidin-1-yl)-N,N-dimethylnicotinamdie] | 9 | 29 | No IP | 4 |  |  |
| CC(C)C(O)(C(=O)NCCCC1CCN(c2ccc(C(=O)N(C)C)c(Cl)n2)CC1)C(F)(F)F (stereo not shown) [Example 5-7, 2-chloro-6-(4-(3-(2-hydroxy-3-methyl-2-(trifluoromethyl)butanamido)propyl)piperidin-1-yl)-N,N-dimethylnicotinamide] | 636 | 106 | No IP | 27 |  |  |
| COc1cccc([C@](O)(C(=O)N(C)CCCC2CCN(c3ccc(C(=O)N(C)C)c(Cl)n3)CC2)C(F)(F)F)c1 [Example 1-27, (S)-2-chloro-N,N-dimethyl-6-(4-(3-(3,3,3-trifluoro-2-hydroxy-2-(3-methoxyphenyl)-N-methylpropanamido)propyl)piperidin-1-yl)nicotinamide] | 603 | 53 | No IP | 3 |  |  |
| COc1cccc([C@@](O)(C(=O)Nc2ccc(C3CCN(c4ccc(C(=O)N(C)C)c(Cl)c4)CC3)cc2)C(F)(F)F)c1 [Example 10-3, (R)-2-chloro-N,N-dimethyl-4-(4-(4-(3,3,3-trifluoro-2-hydroxy-2-(3-methoxyphenyl)propanamido)phenyl)piperidin-1-yl)benzamide] | 1330 | 67 | No IP | 18 |  |  |
| CN(C)C(=O)c1ccc(N2CCC(CCCNC(=O)[C@@](O)(c3cccc(O)c3)C(F)(F)F)CC2)nc1Cl [Example 5-21, (S)-2-chloro-N,N-dimethyl-6-(4-(3-(3,3,3-trifluoro-2-hydroxy-2-(3-hydroxyphenyl)propanamido)propyl)piperidin-1-yl)nicotinamide] | 314 | 91 |  | 36 | 8720 |  |
| CN(C)C(=O)c1ccc(N2CCC(C)(CCCN(C)C(=O)[C@](O)(c3ccccc3)C(F)(F)F)CC2)cc1Cl [Example 9-7, (R)-2-chloro-N,N-dimethyl-4-(4-methyl-4-(3-(3,3,3-trifluoro-2-hydroxy-N-methyl-2-phenylpropanamido)propyl)piper-idin-1-yl)benzamide] | 78 | 42 |  | 19 | 921 |  |
| CNC(=O)c1ccc(N2CCC3(CC2)C[C@H]3CCN(C)C(=O)[C@](O)(c2ccccc2)C(F)(F)F)cc1Cl [Example 7-24, 2-chloro-N-methyl-4-((S)-1-(2-((R)-3,3,3-trifluoro-2-hydroxy-N-methyl-2-phenylpropanamido)ethyl)-6-azaspiro[2.5]octan-6-yl)benzamide] | 1410 | 37 | No IP | 16 |  |  |
